Source: patent US5730982A, “Therapeutic use of hypervariable region of monoclonal antibody M195 and constructs thereof” (Sloan-Kettering Institute for Cancer Research, priority 1995, dated 1998)

System: myeloid leukemic progenitor cells [CFU-GM-(L)] from AML patients
Experiment: Purging of fresh leukemic cells from AML patients, CFU-GM-(L) colony inhibition
Type: cell-based
Settings: Homo sapiens, fresh leukemic cells from 4 patients with AML, 4-HC 100 uM/L, VP-16 5 ug/ml where combined
Experimental: We report the results of a preclinical study comparing four different purging protocols using promyelocytic human cell line HL-60 and myeloid leukemic progenitor cells [CFU-GM-(L)] from AML patients assayed in semisolid culture. We studied the antileukemic effect of 1] complement-dependent lysis by 2 different MoAbs (M195 and F23; 40 ug/ml), reactive with distinct antigens found on early myeloid cells and monocytes, used alone and in combinations; 2] 4-Hydroperoxycyclophosphamide (4-HC) (100 uM/L) alone or 3] combined with VP-16 (5 ug/ml) and 4] a cocktail of 1-3 protocols as above (ie combined immunochemotherapy). Four logs of HL-60 tumor cell elimination was observed after 1 hour incubation with both MoAbs plus 4-HC+VP-16 while the single treatment (ie immunotherapy or chemotherapy) provided 1.5 and 3.0 logs of colony forming inhibition respectively.
The combined treatment of MoAbs and 4-HC+VP-16 produced a 3-log reduction of CFU-GM-(L) colony formation. By comparison the mean recovery of committed normal bone marrow progenitors after incubation with MoAbs and complement was 19.5% for CFU-GM, 32.3% for BFU-E and 16.7% for CFU-MIX.

Compound: O=P1(N(CCCl)CCCl)NC(OO)CCO1 (stereo not shown) [4-HC, 4-Hydroperoxycyclophosphamide]
- inhibition at 100 µM: 95.5%
